# In publication PMC11597089, “Kratom Alkaloids: A Blood–Brain Barrier Specific Membrane Permeability Assay-Guided Isolation and Cyclodextrin Complexation Study” (Molecules, 2024):
# Assay: ACE complex stability, α-CD
# Format: physicochemical
# Settings: 30 mM phosphate buffer pH 7.4, 25 °C, 15 kV, 215 nm
# Procedure: (§1) To investigate the CD complexation behavior of the four kratom alkaloids, we aimed to develop an ACE method for a systematic comparative study. […] To ensure sufficient buffer capacity and to avoid excessive current and Joule heat generation, the buffer concentration was set to 30 mM, and the applied voltage was 15 kV.
# (§2) The ACE experiments were performed by using Agilent 7100 and HP^3DCE instruments (Agilent Technologies, Waldbronn, Germany). Untreated fused silica capillaries (total length of 48.5 cm, effective length of 40 cm, inner diameter of 50 μm) were purchased from Agilent Technologies. The new capillaries were conditioned with a 1 M NaOH wash for 1 h, followed by a 30 min wash each with 0.1 M NaOH and purified water. Prior to all runs, the capillary was preconditioned by rinsing with background electrolyte for 3 min. During the measurements, 30 mM phosphate buffer at pH 7.4 (30 mM Na2HPO4-NaOH) was used. The background electrolyte contained CDs at various concentrations. Stock solutions of the studied kratom alkaloids (mitragynine, paynantheine, speciogynine, speciociliatine) were prepared separately in methanol (1 mg/mL), and, right before the measurements, appropriate dilutions with purified water were used to prepare the sample solutions, applying 0.1% DMSO as the electroosmotic flow (EOF) marker. The samples were injected hydrodynamically at 40 mbar for 3 s. The positive polarity voltage was set to 15 kV, and the capillary was set to 25 °C. The electropherograms were recorded at four wavelengths (200 nm, 210 nm, 215 nm, and 220 nm), and the data were evaluated at 215 nm. In each case, three parallel measurements were performed. The measurements were evaluated using Origin and CEval software (v. 0.6i3).
# (§3) In order to determine the complex stability constants that characterized the strength of the complexes, the first step was to determine the effective mobility of the analyte at specific CD concentrations. Triangular peaks caused by electromigration dispersion are often observed in ACE measurements.
# (§4) Assuming a 1:1 complexation ratio and that the equilibrium CD concentration is almost equal to the total CD concentration, a relationship between the effective mobility relative to the EOF and the complex stability constant can be described by Function (4) (4) μeff=μA+μACDKstabCD/1+KstabCD where µeff is the effective mobility of the analyte, µA and µACD are the free and complexed analyte mobilities, [CD] is the concentration of the selector, and Kstab is the complex stability constant.
# (§5) In order to calculate the exact, apparent, averaged complex stability constant values, viscosity correction and ionic strength correction were used.
row,Compound,complex stability constant (Kstab) with α-CD [M⁻¹]
1,"CC[C@H]1CN2CCc3c([nH]c4cccc(OC)c34)[C@@H]2C[C@@H]1/C(=C\OC)C(=O)OC [Speciogynine, speciogynine]",23 ± 5
2,mitragynine,25 ± 2

# Assay: ACE complex stability, β-CD
# Format: physicochemical
# Settings: 30 mM phosphate buffer pH 7.4, 25 °C, 15 kV, 215 nm
# Procedure: as §1, §2, §3, §4, §5
row,Compound,complex stability constant (Kstab) with β-CD [M⁻¹]
1,"CC[C@H]1CN2CCc3c([nH]c4cccc(OC)c34)[C@@H]2C[C@@H]1/C(=C\OC)C(=O)OC [Speciogynine, speciogynine]",65 ± 9
2,mitragynine,145 ± 20

# Assay: ACE complex stability, γ-CD
# Format: physicochemical
# Settings: 30 mM phosphate buffer pH 7.4, 25 °C, 15 kV, 215 nm
# Procedure: as §1, §2, §3, §4, §5
row,Compound,complex stability constant (Kstab) with γ-CD [M⁻¹]
1,"CC[C@H]1CN2CCc3c([nH]c4cccc(OC)c34)[C@@H]2C[C@@H]1/C(=C\OC)C(=O)OC [Speciogynine, speciogynine]",45 ± 4
2,mitragynine,55 ± 5

# Assay: ACE complex stability, RAME-β-CD
# Format: physicochemical
# Settings: randomly methylated-β-CD DS~12, 30 mM phosphate buffer pH 7.4, 25 °C
# Procedure: as §1, §2, §3, §4, §5
row,Compound,complex stability constant (Kstab) with RAME-β-CD [M⁻¹]
1,"CC[C@H]1CN2CCc3c([nH]c4cccc(OC)c34)[C@@H]2C[C@@H]1/C(=C\OC)C(=O)OC [Speciogynine, speciogynine]",40 ± 1
2,mitragynine,95 ± 9

# Assay: ACE complex stability, CM-α-CD
# Format: physicochemical
# Settings: carboxymethylated-α-CD DS~3.5, 30 mM phosphate buffer pH 7.4, 25 °C
# Procedure: as §1, §2
# (§6) In order to determine the complex stability constants that characterized the strength of the complexes, the first step was to determine the effective mobility of the analyte at specific CD concentrations. Triangular peaks caused by electromigration dispersion are often observed in ACE measurements. […]
row,Compound,complex stability constant (Kstab) with CM-α-CD [M⁻¹]
1,"CC[C@H]1CN2CCc3c([nH]c4cccc(OC)c34)[C@@H]2C[C@@H]1/C(=C\OC)C(=O)OC [Speciogynine, speciogynine]",135 ± 12
2,mitragynine,155 ± 15

# Assay: ACE complex stability, CM-β-CD
# Format: physicochemical
# Settings: carboxymethylated-β-CD DS~3, 30 mM phosphate buffer pH 7.4, 25 °C
# Procedure: as §1, §2, §3, §4, §5
row,Compound,complex stability constant (Kstab) with CM-β-CD [M⁻¹]
1,"CC[C@H]1CN2CCc3c([nH]c4cccc(OC)c34)[C@@H]2C[C@@H]1/C(=C\OC)C(=O)OC [Speciogynine, speciogynine]",170 ± 15
2,mitragynine,215 ± 20

# Assay: ACE complex stability, CM-γ-CD
# Format: physicochemical
# Settings: carboxymethylated-γ-CD DS~4, 30 mM phosphate buffer pH 7.4, 25 °C
# Procedure: as §1, §2, §3, §4, §5
row,Compound,complex stability constant (Kstab) with CM-γ-CD [M⁻¹]
1,"CC[C@H]1CN2CCc3c([nH]c4cccc(OC)c34)[C@@H]2C[C@@H]1/C(=C\OC)C(=O)OC [Speciogynine, speciogynine]",140 ± 12
2,mitragynine,200 ± 10

# Assay: ACE complex stability, Sualfadex
# Format: physicochemical
# Settings: hexakis-(6-deoxy-6-(2-carboxyethyl)thio)-α-CD, 30 mM phosphate buffer pH 7.4, 25 °C
# Procedure: as §1, §2, §3, §4, §5
row,Compound,complex stability constant (Kstab) with Sualfadex [M⁻¹]
1,"CC[C@H]1CN2CCc3c([nH]c4cccc(OC)c34)[C@@H]2C[C@@H]1/C(=C\OC)C(=O)OC [Speciogynine, speciogynine]",75 ± 20
2,mitragynine,200 ± 25

# Assay: ACE complex stability, Sugammadex
# Format: physicochemical
# Settings: octakis(6-deoxy-6-(2-carboxyethyl)thio)-γ-CD, 30 mM phosphate buffer pH 7.4, 25 °C
# Procedure: as §1
# (§7) The ACE experiments were performed by using Agilent 7100 and HP^3DCE instruments (Agilent Technologies, Waldbronn, Germany). Untreated fused silica capillaries (total length of 48.5 cm, effective length of 40 cm, inner diameter of 50 μm) were purchased from Agilent Technologies. The new capillaries were conditioned with a 1 M NaOH wash for 1 h, followed by a 30 min wash each with 0.1 M NaOH and purified water. Prior to all runs, the capillary was preconditioned by rinsing with background electrolyte for 3 min. During the measurements, 30 mM phosphate buffer at pH 7.4 (30 mM Na2HPO4-NaOH) was used. The background electrolyte contained CDs at various concentrations. […] The electropherograms were recorded at four wavelengths (200 nm, 210 nm, 215 nm, and 220 nm), and the data were evaluated at 215 nm. […] The measurements were evaluated using Origin and CEval software (v. 0.6i3). […]
row,Compound,complex stability constant (Kstab) with Sugammadex [M⁻¹]
1,mitragynine,2050

# Assay: ACE complex stability, Succ-β-CD
# Format: physicochemical
# Settings: succinyl-β-CD DS~6, 30 mM phosphate buffer pH 7.4, 25 °C
# Procedure: as §1, §2, §3, §4, §5
row,Compound,complex stability constant (Kstab) with Succ-β-CD [M⁻¹]
1,"CC[C@H]1CN2CCc3c([nH]c4cccc(OC)c34)[C@@H]2C[C@@H]1/C(=C\OC)C(=O)OC [Speciogynine, speciogynine]",840 ± 80
2,mitragynine,375 ± 20

# Assay: ACE complex stability, SBE-β-CD DS~4
# Format: physicochemical
# Settings: sulfobutyl-ether-β-CD DS~4, 30 mM phosphate buffer pH 7.4, 25 °C
# Procedure: as §1, §2, §3, §4, §5
row,Compound,complex stability constant (Kstab) with SBE-β-CD DS~4 [M⁻¹]
1,"CC[C@H]1CN2CCc3c([nH]c4cccc(OC)c34)[C@@H]2C[C@@H]1/C(=C\OC)C(=O)OC [Speciogynine, speciogynine]",610 ± 60
2,mitragynine,550 ± 35

# Assay: ACE complex stability, SP-β-CD
# Format: physicochemical
# Settings: sulfopropylated-β-CD DS~2, 30 mM phosphate buffer pH 7.4, 25 °C
# Procedure: as §1, §7
row,Compound,complex stability constant (Kstab) with SP-β-CD [M⁻¹]
1,mitragynine,210 ± 25

# Assay: ACE complex stability, HS-β-CD
# Format: physicochemical
# Settings: heptakis-(6-O-sulfo)-β-CD, 30 mM phosphate buffer pH 7.4, 25 °C
# Procedure: as §1, §2, §6
row,Compound,complex stability constant (Kstab) with HS-β-CD [M⁻¹]
1,"CC[C@H]1CN2CCc3c([nH]c4cccc(OC)c34)[C@@H]2C[C@@H]1/C(=C\OC)C(=O)OC [Speciogynine, speciogynine]",645 ± 30

# Assay: ACE complex stability, HxDMS-α-CD
# Format: physicochemical
# Settings: hexakis-(2,3-O-dimethyl, 6-O-sulfo)-α-CD, 30 mM phosphate buffer pH 7.4, 25 °C
# Procedure: as §1, §2, §3, §4, §5
row,Compound,complex stability constant (Kstab) with HxDMS-α-CD [M⁻¹]
1,"CC[C@H]1CN2CCc3c([nH]c4cccc(OC)c34)[C@@H]2C[C@@H]1/C(=C\OC)C(=O)OC [Speciogynine, speciogynine]",40 ± 4
2,mitragynine,50 ± 10

# Assay: ACE complex stability, HDMS-β-CD
# Format: physicochemical
# Settings: heptakis-(2,3-O-dimethyl, 6-O-sulfo)-β-CD, 30 mM phosphate buffer pH 7.4, 25 °C
# Procedure: as §1, §2, §3, §4, §5
row,Compound,complex stability constant (Kstab) with HDMS-β-CD [M⁻¹]
1,"CC[C@H]1CN2CCc3c([nH]c4cccc(OC)c34)[C@@H]2C[C@@H]1/C(=C\OC)C(=O)OC [Speciogynine, speciogynine]",30 ± 3
2,mitragynine,175 ± 7

# Assay: ACE complex stability, HMDiSu-β-CD
# Format: physicochemical
# Settings: heptakis-(2-O-methyl, 3,6-O-disulfo)-β-CD, 30 mM phosphate buffer pH 7.4, 25 °C
# Procedure: as §1, §2, §3, §4, §5
row,Compound,complex stability constant (Kstab) with HMDiSu-β-CD [M⁻¹]
1,"CC[C@H]1CN2CCc3c([nH]c4cccc(OC)c34)[C@@H]2C[C@@H]1/C(=C\OC)C(=O)OC [Speciogynine, speciogynine]",530 ± 10
2,mitragynine,230 ± 25

# Assay: ACE complex stability, MA-β-CD
# Format: physicochemical
# Settings: mono-(6-N-amino-6-deoxy)-β-CD, positively charged, 30 mM phosphate buffer pH 7.4, 25 °C
# Procedure: as §1, §2, §3, §4, §5
row,Compound,complex stability constant (Kstab) with MA-β-CD [M⁻¹]
1,"CC[C@H]1CN2CCc3c([nH]c4cccc(OC)c34)[C@@H]2C[C@@H]1/C(=C\OC)C(=O)OC [Speciogynine, speciogynine]",< 10
2,mitragynine,< 10

# Assay: ACE complex stability, HPA-β-CD
# Format: physicochemical
# Settings: mono-6^A-(3-hydroxy)propylamino-β-CD, positively charged, 30 mM phosphate buffer pH 7.4, 25 °C
# Procedure: as §1, §2, §3, §4, §5
row,Compound,complex stability constant (Kstab) with HPA-β-CD [M⁻¹]
1,"CC[C@H]1CN2CCc3c([nH]c4cccc(OC)c34)[C@@H]2C[C@@H]1/C(=C\OC)C(=O)OC [Speciogynine, speciogynine]",< 10
2,mitragynine,< 10

# Assay: ACE complex stability, PYR-β-CD
# Format: physicochemical
# Settings: 6-monodeoxy-6-pyrrolidine-β-CD, positively charged, 30 mM phosphate buffer pH 7.4, 25 °C
# Procedure: as §1, §2, §3, §4, §5
row,Compound,complex stability constant (Kstab) with PYR-β-CD [M⁻¹]
1,"CC[C@H]1CN2CCc3c([nH]c4cccc(OC)c34)[C@@H]2C[C@@H]1/C(=C\OC)C(=O)OC [Speciogynine, speciogynine]",< 10
2,mitragynine,< 10

# Assay: ACE complex stability, PIP-β-CD
# Format: physicochemical
# Settings: 6-monodeoxy-6-piperidine-β-CD, positively charged, 30 mM phosphate buffer pH 7.4, 25 °C
# Procedure: as §1, §2, §3, §4, §5
row,Compound,complex stability constant (Kstab) with PIP-β-CD [M⁻¹]
1,"CC[C@H]1CN2CCc3c([nH]c4cccc(OC)c34)[C@@H]2C[C@@H]1/C(=C\OC)C(=O)OC [Speciogynine, speciogynine]",< 10
2,mitragynine,< 10

# Assay: ACE complex stability, MePYR-β-CD
# Format: physicochemical
# Settings: mono-6^A-(N-methyl-pyrrolidine)-β-CD, positively charged, 30 mM phosphate buffer pH 7.4, 25 °C
# Procedure: as §1, §2, §3, §4, §5
row,Compound,complex stability constant (Kstab) with MePYR-β-CD [M⁻¹]
1,"CC[C@H]1CN2CCc3c([nH]c4cccc(OC)c34)[C@@H]2C[C@@H]1/C(=C\OC)C(=O)OC [Speciogynine, speciogynine]",< 10
2,mitragynine,< 10

# Assay: ACE complex stability, MePIP-β-CD
# Format: physicochemical
# Settings: mono-6^A-(N-methyl-piperidine)-β-CD, positively charged, 30 mM phosphate buffer pH 7.4, 25 °C
# Procedure: as §1, §2, §3, §4, §5
row,Compound,complex stability constant (Kstab) with MePIP-β-CD [M⁻¹]
1,"CC[C@H]1CN2CCc3c([nH]c4cccc(OC)c34)[C@@H]2C[C@@H]1/C(=C\OC)C(=O)OC [Speciogynine, speciogynine]",< 10
2,mitragynine,< 10
